From US8859574B2 (IRM LLC, priority 2008, dated 2014)

Molecular target: T1, IGF-1R Ba/F3 (Homo sapiens, UniProt P08069)
T1 construct: fused on or other part: TEL- (or BCR-) IGF-1R in Ba/F3: the kinase part holds the site
Assay: Ba/F3 Cell Viability Inhibition Assay (IGF-1R Ba/F3)
Assay type: cell-based, murine
Details: Tel-TK transformed Ba/F3 cells, 48 hours, Britelite luminescence
Method in brief: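 IL-3-independent murine Ba/F3 cells transformed with a TEL/BCR-fused IGF-1R kinase were seeded at 3750 cells/well and exposed to serially diluted compound for 48 h at 37 °C. Viability was read by Britelite luminescence. IC50 is the concentration giving 50% of DMSO-control viability, from a logistic fit.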

T1 sequence (P08069 999-1274 limits assumed): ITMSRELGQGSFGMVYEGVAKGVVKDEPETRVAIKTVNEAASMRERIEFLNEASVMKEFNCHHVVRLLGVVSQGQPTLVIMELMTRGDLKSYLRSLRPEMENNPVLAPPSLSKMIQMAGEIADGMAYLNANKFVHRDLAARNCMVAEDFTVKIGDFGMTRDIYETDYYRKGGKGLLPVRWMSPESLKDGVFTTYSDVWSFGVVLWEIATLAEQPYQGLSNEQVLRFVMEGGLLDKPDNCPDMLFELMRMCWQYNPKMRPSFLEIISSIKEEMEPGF

**Q.** Which IC50 does the source give for `Cc1cc(Nc2nc(Nc3cc(C)c(C4CCN([C@H]5CC[C@H](O)CC5)CC4)cc3F)ncc2Cl)n[nH]1` [Compound 310, Trans-4-(4-(4-(5-chloro-4-(5-methyl-1H-pyrazol-3-ylamino)pyrimidin-2-ylamino)-5-fluoro-2-methylphenyl)piperidin-1-yl)cyclohexanol] here?
**A.** 27 nM

**Q.** `Cc1cc(Nc2nc(Nc3cc(C(F)(F)F)c(C4CCN(CC(N)=O)CC4)cc3F)ncc2Cl)n[nH]1` [Compound 36, 2-(4-(4-(5-chloro-4-(5-methyl-1H-pyrazol-3-ylamino)pyrimidin-2-ylamino)-5-fluoro-2-(trifluoromethyl)phenyl)piperidin-1-yl)acetamide] was tested. Which IC50 did it give?
**A.** 19 nM

**Q.** How did the IC50 turn out when `Cc1cc(Nc2nc(Nc3cc(Cl)c(C4CCN(CCC(F)(F)F)CC4)cc3C)ncc2Cl)n[nH]1` [Compound 27, 5-chloro-N2-(5-chloro-2-methyl-4-(1-(3,3,3-trifluoropropyl)piperidin-4-yl)phenyl)-N4-(5-methyl-1H-pyrazol-3-yl)pyrimidine-2,4-diamine] was run?
**A.** 44 nM

**Q.** With `Cc1cc(Nc2nc(Nc3cc(C)c(C4CCN([C@H]5CCN(S(C)(=O)=O)C5)CC4)cc3F)ncc2Cl)n[nH]1` [Compound 313, (S)-5-chloro-N2-(2-fluoro-5-methyl-4-(1-(1-(methylsulfonyl)pyrrolidin-3-yl)piperidin-4-yl)phenyl)-N4-(5-methyl-1H-pyrazol-3-yl)pyrimidine-2,4-diamine] as the compound, how does the IC50 read?
**A.** 30 nM

**Q.** For `Cc1cc(Nc2nc(Nc3cc(C)c(C4CCN(C5CCN(S(C)(=O)=O)CC5)CC4)cc3F)ncc2Cl)n[nH]1` [Compound 278, 5-chloro-N2-(2-fluoro-5-methyl-4-(1′-(methylsulfonyl)-1,4′-bipiperidin-4-yl)phenyl)-N4-(5-methyl-1H-pyrazol-3-yl)pyrimidine-2,4-diamine], which IC50 is on record?
**A.** 9 nM

**Q.** For `Cc1cc(Nc2nc(Nc3cc(C)c(C4CCN(C(=O)C5CCCC(=O)N5)CC4)cc3F)ncc2Cl)n[nH]1` (centres unmarked) [Compound 142, 6-(4-(4-(5-chloro-4-(5-methyl-1H-pyrazol-3-ylamino)pyrimidin-2-ylamino)-5-fluoro-2-methylphenyl)piperidine-1-carbonyl)piperidin-2-one], which IC50 is on record?
**A.** 282 nM

**Q.** For `Cc1cc(Nc2nc(Nc3cc(C#N)c(C4CCN(C)CC4)cc3C)ncc2Cl)n[nH]1` [Compound 286, 5-(5-chloro-4-(5-methyl-1H-pyrazol-3-ylamino)pyrimidin-2-ylamino)-4-methyl-2-(1-methylpiperidin-4-yl)benzonitrile], which IC50 is on record?
**A.** 37 nM

**Q.** How did the IC50 turn out when `Cc1cc(Nc2nc(Nc3cc(C)c(C4CCN(CC(F)(F)F)CC4)cc3F)ncc2Cl)n[nH]1` [Compound 26, 5-chloro-N2-(2-fluoro-5-methyl-4-(1-(2,2,2-trifluoroethyl)piperidin-4-yl)phenyl)-N4-(5-methyl-1H-pyrazol-3-yl)pyrimidine-2,4-diamine] was run?
**A.** 142 nM

**Q.** With `Cc1cc(Nc2ncc(Cl)c(Nc3cc(C4CC4)[nH]n3)n2)c(F)cc1C1CCN(C2CC2)CC1` [Compound 255, 5-chloro-N4-(5-cyclopropyl-1H-pyrazol-3-yl)-N2-(4-(1-cyclopropylpiperidin-4-yl)-2-fluoro-5-methylphenyl)pyrimidine-2,4-diamine] as the compound, how does the IC50 read?
**A.** 228 nM

**Q.** With `Cc1cc(Nc2nc(Nc3cc(C)c(C4CCN(C(=O)[C@H]5CCCN5C(C)C)CC4)cc3F)ncc2Cl)n[nH]1` [Compound 135, (R)-(4-(4-(5-chloro-4-(5-methyl-1H-pyrazol-3-ylamino)pyrimidin-2-ylamino)-5-fluoro-2-methylphenyl)piperidin-1-yl)(1-isopropylpyrrolidin-2-yl)methanone] as the compound, how does the IC50 read?
**A.** 48 nM

**Q.** For `Cc1cc(Nc2nc(Nc3cc(C)c(C4CCN(Cc5nc(C(C)C)no5)CC4)cc3C)ncc2Cl)n[nH]1` [Compound 260, 5-chloro-N2-(4-(1-((3-isopropyl-1,2,4-oxadiazol-5-yl)methyl)piperidin-4-yl)-2,5-dimethylphenyl)-N4-(5-methyl-1H-pyrazol-3-yl)pyrimidine-2,4-diamine], which IC50 is on record?
**A.** 18 nM
